Key:
[1] = States of preparations observed with the naked eyes (solubilization); format: physicochemical; conditions: water, without TPGS, apparent concentration 2 mg/ml
Method: A surfactant TPGS was selected for solubilization. Preparation method: 40 mg of THY was weighed and placed in a beaker, added with a certain amount of water and TPGS and magnetically stirred at room temperature for 24 h. In micelle preparations 2-8, mass ratios of THY to TPGS were 2:1, 1:1, 1:2.5, 1:5, 1:7, 1:10, 1:15, and 1:20, respectively.
40 mg of THY-Tos was weighed and placed in a beaker, and added with a certain amount of water and TPGS. For Preparations 2 to 5, the mass ratios of THY-Tos to TPGS were 1:1, 1:7, 1:10, and 1:15, respectively. The above micelle preparations were magnetically stirred for 24 h to obtain the final products.

oral ulcer rats = test: Pharmacodynamic study in NaOH-induced oral ulcer rats; design: species or system SD rats; conditions: rat, in vivo
Source text: After 3 days of adaptive feeding, each rat was anesthetized and fixed on an operating table, the labial mucosa of the SD rat was dried with sterile cotton balls, and further sterile cotton balls were used for moisture isolation. A 3 mm×3 mm NaOH crystal was placed on the labial mucosa, and then removed after being maintained for 30 s. A treated area was wiped with sterile cotton balls containing normal saline to remove residual NaOH. […]
An area method was used to macroscopically evaluate the oral ulcer area, a maximum transverse diameter and longitudinal diameter of the ulcer were measured by vernier calipers, which were marked as d1 and d2, respectively, and a ulcer area was S=π×d1×d2×¼ (π=3.14). […]
The analysis was performed by t-test, and normally distributed quantitative data were expressed as mean±standard deviation (X, ±S), one-way ANOVA and LSD methods were used for pairwise comparison, and the Wilcoxon rank-sum test was used when the ANOVA conditions were not met. […]

solubility (in words) [1]: poor solubility
SMILES: Cc1ccc(C(C)C)c(OC(=O)CCC(=O)Oc2c(C)c(C)c3c(c2C)CC[C@@](C)(CCC[C@H](C)CCC[C@H](C)CCCC(C)C)O3)c1 [THY-Tos]
efficacy on an animal-based oral ulcer model compared with THY in combination with vitamin E (oral ulcer rats): not significantly different

From patent US12324790B1, “Preparation method and application of micelle preparation containing thymol and derivative thereof” (Nanjing Mucosa Tech Co., Ltd., priority 2024, dated 2025)
